Values quoted from earlier work as cited in US20250042860A1, “Process for Chemical Synthesis of Ergothioneine and Methods of Use” (NANJING NUTRABUILDING BIO-TECH CO., LTD., priority 2022, published 2025).

Settings: animals and humans, even at high doses

For ergothioneine, the “toxicity or adverse effects associated with ergothioneine administration” value is given as “no toxicity or adverse effects”.
